The values below come from paper PMC10491607, “Structural insight into the substrate recognition and transport mechanism of amino acid transporter complex ACE2-B^0AT1 and ACE2-SIT1” (Cell Discovery, 2023).

The structures appear in SMILES notation.

The target of test [1] is T1, ACE2-B^0AT1 complex (Homo sapiens, UniProt Q695T7).
T1 construct: gene SLC6A19; purified complex for cryo-EM; with Angiotensin-converting enzyme 2
The test is described as follows: cryo-EM structure of the complex, […] A. The test is classed as binding. Particulars: central substrate site between TM1 and TM6.

The target in test [2] is T1, ACE2-B^0AT1 complex. The test is described as follows: cryo-EM structure of the complex, […] A. The class given is binding. Particulars: central substrate site between TM1 and TM6. The source holds these as a separate data set.
Test [3] has as its target T2, ACE2-SIT1 complex (Homo sapiens, UniProt Q9NP91).
T2 construct: gene SLC6A20; co-expressed in HEK293T cells for currents; purified complex for cryo-EM (two protomers, each ACE2 plus SIT1); with Angiotensin-converting enzyme 2
The test is described as follows: Pro-induced transport current in HEK293T cells co-expressing SIT1 and ACE2. The class given is cell-based.

For test [4], the target named is T3, ACE2-SIT1 complex (Homo sapiens, UniProt Q9NP91, Q247A).
T3 construct: gene SLC6A20; co-expressed in HEK293T cells for currents; purified complex for cryo-EM (two protomers, each ACE2 plus SIT1); with Angiotensin-converting enzyme 2
The description is as above. The test is classed as cell-based.

What is called EC50 is the concentration needed to bring the measured effect to its halfway point. The low end stands for higher potency in that assay, the high end for lower potency in that assay.

T1 sequence (Q695T7 whole entry): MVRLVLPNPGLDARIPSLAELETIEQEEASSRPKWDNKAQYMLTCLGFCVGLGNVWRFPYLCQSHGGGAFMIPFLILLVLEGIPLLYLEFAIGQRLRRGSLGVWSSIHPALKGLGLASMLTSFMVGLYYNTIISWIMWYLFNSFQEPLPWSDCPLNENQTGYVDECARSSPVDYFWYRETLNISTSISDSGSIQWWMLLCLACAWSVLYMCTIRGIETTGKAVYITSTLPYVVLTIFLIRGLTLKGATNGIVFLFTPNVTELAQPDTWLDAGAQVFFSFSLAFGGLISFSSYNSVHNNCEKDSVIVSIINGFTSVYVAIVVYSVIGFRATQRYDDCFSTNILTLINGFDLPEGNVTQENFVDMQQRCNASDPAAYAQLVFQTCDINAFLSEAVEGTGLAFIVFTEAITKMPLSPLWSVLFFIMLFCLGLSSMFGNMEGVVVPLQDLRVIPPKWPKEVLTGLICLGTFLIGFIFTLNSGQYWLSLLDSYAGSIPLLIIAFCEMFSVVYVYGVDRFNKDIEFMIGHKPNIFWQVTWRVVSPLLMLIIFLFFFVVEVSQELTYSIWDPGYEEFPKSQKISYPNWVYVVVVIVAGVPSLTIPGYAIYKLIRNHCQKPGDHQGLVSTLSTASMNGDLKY
T1 sequence (Q9BYF1 18-805 partner): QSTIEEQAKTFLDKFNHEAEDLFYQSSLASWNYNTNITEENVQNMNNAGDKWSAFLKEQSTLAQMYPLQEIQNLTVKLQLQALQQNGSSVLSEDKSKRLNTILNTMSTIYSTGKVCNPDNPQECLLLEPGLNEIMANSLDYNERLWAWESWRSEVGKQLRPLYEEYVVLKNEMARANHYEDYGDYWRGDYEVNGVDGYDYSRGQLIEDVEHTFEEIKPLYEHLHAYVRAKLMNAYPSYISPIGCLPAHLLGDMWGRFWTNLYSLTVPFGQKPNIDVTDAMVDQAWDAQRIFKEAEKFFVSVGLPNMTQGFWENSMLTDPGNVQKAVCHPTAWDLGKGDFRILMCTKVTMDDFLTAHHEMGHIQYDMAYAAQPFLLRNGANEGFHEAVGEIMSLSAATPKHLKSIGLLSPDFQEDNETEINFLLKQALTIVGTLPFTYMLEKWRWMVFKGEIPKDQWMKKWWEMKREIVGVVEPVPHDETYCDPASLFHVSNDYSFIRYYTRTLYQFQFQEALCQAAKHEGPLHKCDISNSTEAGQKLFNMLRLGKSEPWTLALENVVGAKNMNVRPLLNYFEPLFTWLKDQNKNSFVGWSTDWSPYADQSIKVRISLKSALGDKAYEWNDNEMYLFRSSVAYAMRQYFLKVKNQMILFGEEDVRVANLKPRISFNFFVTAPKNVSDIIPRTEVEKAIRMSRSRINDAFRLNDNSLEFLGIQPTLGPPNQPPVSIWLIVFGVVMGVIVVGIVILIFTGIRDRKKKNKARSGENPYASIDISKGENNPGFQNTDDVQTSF
T2 sequence (Q9NP91 whole entry): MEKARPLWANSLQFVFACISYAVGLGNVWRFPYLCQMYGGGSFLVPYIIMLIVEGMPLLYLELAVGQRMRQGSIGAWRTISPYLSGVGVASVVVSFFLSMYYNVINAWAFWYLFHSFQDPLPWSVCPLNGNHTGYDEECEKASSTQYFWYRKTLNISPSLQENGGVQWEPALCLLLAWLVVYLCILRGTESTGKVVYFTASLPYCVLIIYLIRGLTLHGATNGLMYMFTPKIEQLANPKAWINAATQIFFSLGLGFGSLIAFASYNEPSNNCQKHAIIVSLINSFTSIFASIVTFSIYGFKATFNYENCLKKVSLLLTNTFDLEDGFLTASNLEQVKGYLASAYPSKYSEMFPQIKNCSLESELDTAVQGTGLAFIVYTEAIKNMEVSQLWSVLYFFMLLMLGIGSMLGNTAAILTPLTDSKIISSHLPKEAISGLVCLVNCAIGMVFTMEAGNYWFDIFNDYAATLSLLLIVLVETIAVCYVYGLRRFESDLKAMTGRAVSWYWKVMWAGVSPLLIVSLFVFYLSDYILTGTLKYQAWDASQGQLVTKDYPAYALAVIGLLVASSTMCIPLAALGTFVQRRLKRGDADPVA
T2 sequence (Q9BYF1 18-805 partner): as the sequence (Q9BYF1 18-805 partner) above
T3 sequence (Q9NP91 whole entry Q247A): as the sequence (Q9NP91 whole entry) above, with Q247A counted along it
T3 sequence (Q9BYF1 18-805 partner): as the sequence (Q9BYF1 18-805 partner) above

In the case of `NC(=O)CC[C@H](N)C(=O)O` [Gln], the “cryo-EM structure of the complex, 3.2 A” value on ACE2-B^0AT1 complex [1] was “ACE2-B^0AT1 complex bound to its native substrates Gln and Met are determined”.
On to `CSCC[C@H](N)C(=O)O` [Met], for which the “cryo-EM structure of the complex, 3.1 A” value at ACE2-B^0AT1 complex [2] was “ACE2-B^0AT1 complex bound to its native substrates Gln and Met are determined”.
With `O=C(O)[C@@H]1CCCN1` [Pro], the EC50 is around 2510 µM at ACE2-SIT1 complex [3] and around 70 µM at ACE2-SIT1 complex [4].
